Measured values from paper PMC6199744, “Development of Chemical Proteomics for the Folateome and Analysis of the Kinetoplastid Folateome” (ACS Infectious Diseases, 2018).
Read-outs that look alike come from different tables or passages of the source.

What was measured:
Type in all cases: binding
[1] = biological target: T1, HeLa cell extract proteins (Homo sapiens, UniProt O43143)
T1 construct: endogenous in cells; host or cells: HeLa cell extract

[2] = biological target: T2, HeLa cell extract proteins (Homo sapiens, UniProt P06454)
T2 construct: endogenous in cells; host or cells: HeLa cell extract
T2 sequence (P06454 1-111): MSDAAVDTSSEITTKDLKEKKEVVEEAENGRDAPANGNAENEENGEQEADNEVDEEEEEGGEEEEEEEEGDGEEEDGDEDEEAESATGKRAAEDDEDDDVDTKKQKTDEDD

[3] = biological target: T3, HeLa cell extract proteins (Homo sapiens, UniProt P21359)
T3 construct: endogenous in cells; host or cells: HeLa cell extract

[4] = biological target: T4, HeLa cell extract proteins (Homo sapiens, UniProt P25205)
T4 construct: endogenous in cells; host or cells: HeLa cell extract
T4 sequence (P25205 1-808): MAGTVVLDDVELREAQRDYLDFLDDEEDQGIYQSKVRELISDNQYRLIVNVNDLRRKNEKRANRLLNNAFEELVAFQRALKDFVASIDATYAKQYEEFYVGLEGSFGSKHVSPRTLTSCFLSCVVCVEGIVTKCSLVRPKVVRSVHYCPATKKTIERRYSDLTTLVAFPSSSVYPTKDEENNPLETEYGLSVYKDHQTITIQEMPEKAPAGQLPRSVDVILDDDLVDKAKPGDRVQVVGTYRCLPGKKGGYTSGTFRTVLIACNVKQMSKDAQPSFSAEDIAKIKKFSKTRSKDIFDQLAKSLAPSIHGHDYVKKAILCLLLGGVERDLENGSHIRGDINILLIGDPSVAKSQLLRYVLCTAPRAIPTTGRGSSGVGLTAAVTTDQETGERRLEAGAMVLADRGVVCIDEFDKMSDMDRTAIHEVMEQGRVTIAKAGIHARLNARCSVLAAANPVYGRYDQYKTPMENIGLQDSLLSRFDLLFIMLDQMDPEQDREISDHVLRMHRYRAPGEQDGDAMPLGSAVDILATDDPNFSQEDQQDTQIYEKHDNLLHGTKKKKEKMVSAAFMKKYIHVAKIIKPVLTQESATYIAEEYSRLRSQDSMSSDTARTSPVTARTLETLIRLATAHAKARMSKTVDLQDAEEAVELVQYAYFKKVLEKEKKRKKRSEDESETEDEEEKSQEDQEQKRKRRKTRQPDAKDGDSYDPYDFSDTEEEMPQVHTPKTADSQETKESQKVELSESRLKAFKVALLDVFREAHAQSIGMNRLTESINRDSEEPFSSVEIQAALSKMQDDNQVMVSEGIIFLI

[5] = biological target: T5, HeLa cell extract proteins (Homo sapiens, UniProt P25789)
T5 construct: endogenous in cells; host or cells: HeLa cell extract
T5 sequence (P25789 1-261): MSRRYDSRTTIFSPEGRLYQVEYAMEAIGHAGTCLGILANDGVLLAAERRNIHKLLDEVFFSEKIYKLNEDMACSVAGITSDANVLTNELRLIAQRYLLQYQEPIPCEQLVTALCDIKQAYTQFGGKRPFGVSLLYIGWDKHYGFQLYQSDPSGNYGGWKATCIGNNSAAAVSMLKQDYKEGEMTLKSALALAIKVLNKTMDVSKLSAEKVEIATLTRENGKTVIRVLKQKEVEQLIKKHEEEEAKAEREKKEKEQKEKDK

[6] = biological target: T6, HeLa cell extract proteins (Homo sapiens, UniProt P28066)
T6 construct: endogenous in cells; host or cells: HeLa cell extract
T6 sequence (P28066 1-241): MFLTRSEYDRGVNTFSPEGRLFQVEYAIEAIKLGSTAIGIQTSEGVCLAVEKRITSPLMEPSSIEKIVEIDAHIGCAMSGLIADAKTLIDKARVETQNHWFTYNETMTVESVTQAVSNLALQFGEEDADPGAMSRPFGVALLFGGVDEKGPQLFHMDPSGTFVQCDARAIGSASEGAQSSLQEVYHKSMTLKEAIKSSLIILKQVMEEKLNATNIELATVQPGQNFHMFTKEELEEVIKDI

[7] = biological target: T7, HeLa cell extract proteins (Homo sapiens, UniProt P39019)
T7 construct: endogenous in cells; host or cells: HeLa cell extract

[8] = biological target: T8, HeLa cell extract proteins (Homo sapiens, UniProt Q13310)
T8 construct: endogenous in cells; host or cells: HeLa cell extract

[9] = biological target: T9, HeLa cell extract proteins (Homo sapiens, UniProt Q16881)
T9 construct: endogenous in cells; host or cells: HeLa cell extract
T9 sequence (Q16881 1-649): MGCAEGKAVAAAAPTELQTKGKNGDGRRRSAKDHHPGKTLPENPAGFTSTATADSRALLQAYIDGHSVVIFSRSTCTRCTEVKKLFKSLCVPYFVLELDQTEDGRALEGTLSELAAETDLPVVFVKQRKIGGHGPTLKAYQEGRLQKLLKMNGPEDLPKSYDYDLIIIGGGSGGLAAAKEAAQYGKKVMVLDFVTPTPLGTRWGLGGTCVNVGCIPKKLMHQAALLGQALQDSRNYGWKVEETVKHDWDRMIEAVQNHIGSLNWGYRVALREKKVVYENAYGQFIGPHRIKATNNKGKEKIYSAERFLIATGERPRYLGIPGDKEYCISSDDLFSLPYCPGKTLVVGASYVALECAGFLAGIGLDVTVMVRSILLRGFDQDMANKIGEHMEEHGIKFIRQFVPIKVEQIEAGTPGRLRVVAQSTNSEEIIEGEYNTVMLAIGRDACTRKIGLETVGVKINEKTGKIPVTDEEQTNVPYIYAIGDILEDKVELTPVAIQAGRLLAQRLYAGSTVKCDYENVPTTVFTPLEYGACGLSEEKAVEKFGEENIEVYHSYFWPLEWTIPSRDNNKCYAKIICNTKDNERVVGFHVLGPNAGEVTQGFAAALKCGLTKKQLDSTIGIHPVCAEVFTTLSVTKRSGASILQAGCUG

[10] = biological target: T10, HeLa cell extract proteins (Homo sapiens, UniProt Q99436)
T10 construct: endogenous in cells; host or cells: HeLa cell extract
T10 sequence (Q99436 44-277): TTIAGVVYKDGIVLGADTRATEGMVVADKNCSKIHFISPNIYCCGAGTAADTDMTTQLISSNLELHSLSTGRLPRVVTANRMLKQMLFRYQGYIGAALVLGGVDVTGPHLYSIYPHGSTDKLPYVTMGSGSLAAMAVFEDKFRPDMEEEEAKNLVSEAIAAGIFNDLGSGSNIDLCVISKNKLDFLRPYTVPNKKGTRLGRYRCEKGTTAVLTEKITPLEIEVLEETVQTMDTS

[11] = HeLa, protein PTMA (15 KDA PROTEIN.)
[12] = HeLa, protein RPS19 (40S RIBOSOMAL PROTEIN S19)
[13] = HeLa, protein PSMB7 ([…] BETA TYPE 7 PRECURSOR)

T8 sequence (Q13310 whole entry): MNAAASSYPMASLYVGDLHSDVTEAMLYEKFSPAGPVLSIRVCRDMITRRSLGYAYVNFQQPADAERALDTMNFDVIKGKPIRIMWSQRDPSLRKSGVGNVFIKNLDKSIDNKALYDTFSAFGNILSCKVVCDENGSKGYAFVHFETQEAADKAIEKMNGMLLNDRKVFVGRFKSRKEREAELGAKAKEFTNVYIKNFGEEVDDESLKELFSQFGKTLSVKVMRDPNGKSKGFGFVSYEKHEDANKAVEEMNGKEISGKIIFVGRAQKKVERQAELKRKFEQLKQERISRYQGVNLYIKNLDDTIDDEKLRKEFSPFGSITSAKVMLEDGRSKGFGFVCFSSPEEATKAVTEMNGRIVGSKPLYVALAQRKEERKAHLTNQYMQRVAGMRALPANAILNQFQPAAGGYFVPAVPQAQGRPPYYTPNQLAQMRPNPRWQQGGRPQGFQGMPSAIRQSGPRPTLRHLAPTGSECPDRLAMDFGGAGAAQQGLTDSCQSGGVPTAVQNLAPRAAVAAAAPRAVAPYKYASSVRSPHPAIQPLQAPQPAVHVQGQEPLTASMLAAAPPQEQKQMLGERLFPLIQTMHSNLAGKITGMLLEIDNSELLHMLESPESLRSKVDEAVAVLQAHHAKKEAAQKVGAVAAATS
T3 sequence (P21359 whole entry): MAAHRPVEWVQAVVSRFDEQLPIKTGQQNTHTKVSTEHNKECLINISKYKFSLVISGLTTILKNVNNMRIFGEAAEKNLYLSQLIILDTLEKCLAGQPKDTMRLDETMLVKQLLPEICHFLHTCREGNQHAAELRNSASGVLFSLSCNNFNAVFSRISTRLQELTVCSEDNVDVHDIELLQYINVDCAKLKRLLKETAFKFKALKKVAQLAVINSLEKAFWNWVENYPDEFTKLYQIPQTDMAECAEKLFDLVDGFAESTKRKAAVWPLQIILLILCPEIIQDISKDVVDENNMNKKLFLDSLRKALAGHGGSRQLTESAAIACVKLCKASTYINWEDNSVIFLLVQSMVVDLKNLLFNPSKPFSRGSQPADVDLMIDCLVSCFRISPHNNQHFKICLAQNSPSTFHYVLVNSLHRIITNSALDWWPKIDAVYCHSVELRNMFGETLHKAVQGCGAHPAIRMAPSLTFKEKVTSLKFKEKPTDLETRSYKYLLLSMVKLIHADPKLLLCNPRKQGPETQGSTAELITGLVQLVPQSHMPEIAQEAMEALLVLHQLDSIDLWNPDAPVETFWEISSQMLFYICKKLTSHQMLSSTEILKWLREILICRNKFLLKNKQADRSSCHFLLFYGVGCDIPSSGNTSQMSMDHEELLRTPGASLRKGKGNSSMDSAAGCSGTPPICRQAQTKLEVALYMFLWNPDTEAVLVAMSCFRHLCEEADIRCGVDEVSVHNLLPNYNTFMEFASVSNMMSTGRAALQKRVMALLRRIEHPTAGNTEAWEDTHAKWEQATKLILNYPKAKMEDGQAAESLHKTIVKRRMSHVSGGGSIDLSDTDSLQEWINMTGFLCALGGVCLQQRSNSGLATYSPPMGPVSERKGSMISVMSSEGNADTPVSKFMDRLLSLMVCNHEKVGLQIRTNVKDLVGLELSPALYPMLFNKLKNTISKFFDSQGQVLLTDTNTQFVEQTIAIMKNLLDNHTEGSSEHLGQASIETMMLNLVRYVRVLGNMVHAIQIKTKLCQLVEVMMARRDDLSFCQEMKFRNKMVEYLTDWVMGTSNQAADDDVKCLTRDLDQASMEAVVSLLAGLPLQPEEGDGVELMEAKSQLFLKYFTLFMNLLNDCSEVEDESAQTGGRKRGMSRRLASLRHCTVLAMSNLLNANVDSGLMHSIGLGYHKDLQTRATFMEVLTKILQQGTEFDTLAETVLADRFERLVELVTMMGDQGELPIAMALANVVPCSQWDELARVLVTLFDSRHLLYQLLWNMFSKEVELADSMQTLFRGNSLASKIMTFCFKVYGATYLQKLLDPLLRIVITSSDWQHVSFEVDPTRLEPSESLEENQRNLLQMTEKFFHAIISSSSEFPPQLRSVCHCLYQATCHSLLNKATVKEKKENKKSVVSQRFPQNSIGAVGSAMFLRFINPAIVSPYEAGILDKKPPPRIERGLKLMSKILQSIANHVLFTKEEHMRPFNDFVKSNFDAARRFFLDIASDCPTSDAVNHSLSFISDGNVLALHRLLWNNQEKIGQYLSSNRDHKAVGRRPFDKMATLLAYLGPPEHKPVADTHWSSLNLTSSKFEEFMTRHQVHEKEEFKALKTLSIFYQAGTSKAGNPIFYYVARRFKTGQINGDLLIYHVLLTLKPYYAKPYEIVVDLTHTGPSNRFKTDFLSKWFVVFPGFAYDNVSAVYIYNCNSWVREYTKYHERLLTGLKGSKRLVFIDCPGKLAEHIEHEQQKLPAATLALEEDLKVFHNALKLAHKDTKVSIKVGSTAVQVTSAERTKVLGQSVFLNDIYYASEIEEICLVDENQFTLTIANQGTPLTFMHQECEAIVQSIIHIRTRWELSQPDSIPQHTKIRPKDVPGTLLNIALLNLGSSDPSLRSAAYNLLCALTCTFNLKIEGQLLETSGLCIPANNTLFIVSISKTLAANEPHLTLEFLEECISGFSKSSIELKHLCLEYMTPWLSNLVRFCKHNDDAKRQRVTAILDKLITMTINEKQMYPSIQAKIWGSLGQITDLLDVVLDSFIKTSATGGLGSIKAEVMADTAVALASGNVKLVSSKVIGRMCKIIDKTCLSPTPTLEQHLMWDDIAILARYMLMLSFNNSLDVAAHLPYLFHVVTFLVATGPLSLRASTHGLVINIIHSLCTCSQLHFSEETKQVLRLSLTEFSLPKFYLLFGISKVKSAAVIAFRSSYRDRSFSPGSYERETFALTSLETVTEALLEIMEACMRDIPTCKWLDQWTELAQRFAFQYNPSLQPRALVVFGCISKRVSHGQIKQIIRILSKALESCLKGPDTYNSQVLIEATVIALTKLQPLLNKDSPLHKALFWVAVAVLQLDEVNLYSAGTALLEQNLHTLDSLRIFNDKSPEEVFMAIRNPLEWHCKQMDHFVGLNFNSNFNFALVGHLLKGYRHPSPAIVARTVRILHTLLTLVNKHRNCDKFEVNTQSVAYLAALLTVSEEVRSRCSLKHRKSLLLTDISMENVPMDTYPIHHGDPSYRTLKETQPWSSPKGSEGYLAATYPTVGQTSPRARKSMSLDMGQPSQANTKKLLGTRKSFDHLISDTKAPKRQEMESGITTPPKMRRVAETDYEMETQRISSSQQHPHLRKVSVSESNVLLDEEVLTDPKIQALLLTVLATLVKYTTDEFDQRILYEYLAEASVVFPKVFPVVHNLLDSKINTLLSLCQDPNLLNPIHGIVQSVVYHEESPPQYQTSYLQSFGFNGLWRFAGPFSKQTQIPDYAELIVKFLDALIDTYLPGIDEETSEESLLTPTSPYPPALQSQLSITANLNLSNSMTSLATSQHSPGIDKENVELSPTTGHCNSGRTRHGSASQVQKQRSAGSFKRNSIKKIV
T1 sequence (O43143 whole entry): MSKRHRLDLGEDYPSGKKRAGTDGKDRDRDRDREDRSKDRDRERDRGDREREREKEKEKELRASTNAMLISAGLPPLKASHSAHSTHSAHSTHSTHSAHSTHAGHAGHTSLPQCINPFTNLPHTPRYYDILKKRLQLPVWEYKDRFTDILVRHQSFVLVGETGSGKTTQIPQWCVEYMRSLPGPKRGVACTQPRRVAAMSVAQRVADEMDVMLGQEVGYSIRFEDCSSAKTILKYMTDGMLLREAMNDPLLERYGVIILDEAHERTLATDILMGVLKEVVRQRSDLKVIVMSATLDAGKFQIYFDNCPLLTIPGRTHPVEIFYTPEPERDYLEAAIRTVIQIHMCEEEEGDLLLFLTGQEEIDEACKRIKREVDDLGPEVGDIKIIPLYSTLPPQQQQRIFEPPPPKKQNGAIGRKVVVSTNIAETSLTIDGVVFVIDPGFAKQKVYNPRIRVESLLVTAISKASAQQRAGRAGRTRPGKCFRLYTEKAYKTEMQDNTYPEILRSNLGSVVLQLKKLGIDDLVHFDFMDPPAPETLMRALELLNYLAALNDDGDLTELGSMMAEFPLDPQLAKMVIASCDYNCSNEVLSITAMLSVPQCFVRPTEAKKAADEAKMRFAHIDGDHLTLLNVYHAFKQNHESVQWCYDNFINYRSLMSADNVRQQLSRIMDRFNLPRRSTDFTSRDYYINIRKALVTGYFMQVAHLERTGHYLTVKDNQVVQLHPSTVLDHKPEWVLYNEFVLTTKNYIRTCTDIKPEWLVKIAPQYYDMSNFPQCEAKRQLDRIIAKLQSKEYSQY

SMILES | fold changes relative to vehicle control ([1]; captured protein DHX15, HeLa) | fold changes relative to vehicle control [2, 11] | fold changes relative to vehicle control ([3]; protein NF1, HeLa) | fold changes relative to vehicle control ([4]; protein MCM3, HeLa) | fold changes relative to vehicle control ([5]; protein PSMA4, HeLa) | fold changes relative to vehicle control ([6]; HeLa, protein PSMA5) | fold changes relative to vehicle control ([7]; protein RPS19, HeLa) | fold changes relative to vehicle control ([8]; captured protein PABPC4, HeLa) | fold changes relative to vehicle control ([9]; protein TXNRD1, HeLa) | fold changes relative to vehicle control ([10]; protein PSMB7, HeLa) | fold changes relative to vehicle control ([1]; protein DHX15, HeLa) | fold changes relative to vehicle control ([2]; protein PTMA, HeLa) | fold changes relative to vehicle control ([3]; HeLa, protein NF1) | fold changes relative to vehicle control ([4]; HeLa, protein MCM3) | fold changes relative to vehicle control ([5]; HeLa, captured protein PSMA4) | fold changes relative to vehicle control ([6]; HeLa, captured protein PSMA5) | fold changes relative to vehicle control [7, 12] | fold changes relative to vehicle control ([8]; HeLa, protein PABPC4) | fold changes relative to vehicle control ([9]; HeLa, captured protein TXNRD1) | fold changes relative to vehicle control [10, 13] | also measured
Nc1nc2cccc(-c3ccccc3)c2n1Cc1ccc(Cl)c(Cl)c1 [compound 3] | 0.62 | 0.68 fold | 1.06 | 1.29 | 1.06 | 1 | 1.01 | 0.94 | 1.05 | 0.99 | – | – | – | – | – | – | – | – | – | – | –
NCCOCCOCC(=O)Nc1nc2ncc(CNc3ccc(C(=O)NC(CCC(=O)O)C(=O)O)cc3)nc2c(=O)[nH]1 (stereo not shown) [compound 6] | – | – | – | – | – | – | – | – | – | – | 0.83 | 0.89 | 1.18 | 1.01 | 1.06 | 1.08 | 1.1 | 1.06 | 1.16 | 2.16 | –
Nc1nc2[nH]cc(CCc3ccc(C(=O)N[C@@H](CCC(=O)O)C(=O)O)cc3)c2c(=O)[nH]1 [PTX, pemetrexed] | – | – | – | – | – | – | – | – | – | – | – | – | – | – | – | – | – | – | – | – | fold changes relative to vehicle control [1]: 0.71; fold changes relative to vehicle control [2]: 0.97; fold changes relative to vehicle control [3]: 1.04; fold changes relative to vehicle control [4]: 1.03; fold changes relative to vehicle control [5]: 1.02; fold changes relative to vehicle control [6]: 1.04; fold changes relative to vehicle control [7]: 1.11; fold changes relative to vehicle control [8]: 0.93; fold changes relative to vehicle control [9]: 1.16; fold changes relative to vehicle control [10]: 1.6
Nc1nc2c(c(=O)[nH]1)N(C=O)C(CNc1ccc(C(=O)N[C@@H](CCC(=O)O)C(=O)O)cc1)CN2 (stereo partly shown) [LEU, leucovorin] | – | – | – | – | – | – | – | – | – | – | 0.74 | 0.82 | 0.96 | 0.91 | 1.05 | 1.03 | 1.12 | 0.83 | 1.18 | 1.19 | –
CCCCCCOc1ccc(Cc2cnc(N)nc2N)cc1 [compound 1] | 0.71 | 1.18 fold | 0.84 | 0.94 | 1.1 | 1.05 | 0.98 | 0.86 | 1.27 | 1.17 | – | – | – | – | – | – | – | – | – | – | –
NCCCNc1ccc(C(=O)NC(CCC(=O)O)C(=O)O)cc1 (stereo not shown) [compound 7] | – | – | – | – | – | – | – | – | – | – | 0.75 | 0.72 | 1.11 | 0.93 | 1.03 | 0.99 | 1.06 | 1 | 1.11 | 1.08 | –
CCCCCCOc1cccc(Cc2cnc(N)nc2N)c1 [compound 2] | 0.9 | 3.52 fold | 1.15 | 1.38 | 1.19 | 1.19 | 1.19 | 1.2 | 1.44 | 1.28 | – | – | – | – | – | – | – | – | – | – | –
